Results taken from patent US20240327382A1 (ALMAC DISCOVERY LIMITED, priority 2021, published 2024).

Columns and labels:
Full-length USP19 = target: T1, Full-length USP19 (Homo sapiens, UniProt O94966); experiment: USP19 fluorescence polarisation (FP) assay, Ubiquitin-Lys-TAMRA substrate; type: biochemical; conditions: fluorescence polarisation assay, qualitative
T1 construct: Full-length USP19 was purchased from Boston Biochem (E-576); purchased Boston Biochem E-576
T1 sequence (O94966 1-1318): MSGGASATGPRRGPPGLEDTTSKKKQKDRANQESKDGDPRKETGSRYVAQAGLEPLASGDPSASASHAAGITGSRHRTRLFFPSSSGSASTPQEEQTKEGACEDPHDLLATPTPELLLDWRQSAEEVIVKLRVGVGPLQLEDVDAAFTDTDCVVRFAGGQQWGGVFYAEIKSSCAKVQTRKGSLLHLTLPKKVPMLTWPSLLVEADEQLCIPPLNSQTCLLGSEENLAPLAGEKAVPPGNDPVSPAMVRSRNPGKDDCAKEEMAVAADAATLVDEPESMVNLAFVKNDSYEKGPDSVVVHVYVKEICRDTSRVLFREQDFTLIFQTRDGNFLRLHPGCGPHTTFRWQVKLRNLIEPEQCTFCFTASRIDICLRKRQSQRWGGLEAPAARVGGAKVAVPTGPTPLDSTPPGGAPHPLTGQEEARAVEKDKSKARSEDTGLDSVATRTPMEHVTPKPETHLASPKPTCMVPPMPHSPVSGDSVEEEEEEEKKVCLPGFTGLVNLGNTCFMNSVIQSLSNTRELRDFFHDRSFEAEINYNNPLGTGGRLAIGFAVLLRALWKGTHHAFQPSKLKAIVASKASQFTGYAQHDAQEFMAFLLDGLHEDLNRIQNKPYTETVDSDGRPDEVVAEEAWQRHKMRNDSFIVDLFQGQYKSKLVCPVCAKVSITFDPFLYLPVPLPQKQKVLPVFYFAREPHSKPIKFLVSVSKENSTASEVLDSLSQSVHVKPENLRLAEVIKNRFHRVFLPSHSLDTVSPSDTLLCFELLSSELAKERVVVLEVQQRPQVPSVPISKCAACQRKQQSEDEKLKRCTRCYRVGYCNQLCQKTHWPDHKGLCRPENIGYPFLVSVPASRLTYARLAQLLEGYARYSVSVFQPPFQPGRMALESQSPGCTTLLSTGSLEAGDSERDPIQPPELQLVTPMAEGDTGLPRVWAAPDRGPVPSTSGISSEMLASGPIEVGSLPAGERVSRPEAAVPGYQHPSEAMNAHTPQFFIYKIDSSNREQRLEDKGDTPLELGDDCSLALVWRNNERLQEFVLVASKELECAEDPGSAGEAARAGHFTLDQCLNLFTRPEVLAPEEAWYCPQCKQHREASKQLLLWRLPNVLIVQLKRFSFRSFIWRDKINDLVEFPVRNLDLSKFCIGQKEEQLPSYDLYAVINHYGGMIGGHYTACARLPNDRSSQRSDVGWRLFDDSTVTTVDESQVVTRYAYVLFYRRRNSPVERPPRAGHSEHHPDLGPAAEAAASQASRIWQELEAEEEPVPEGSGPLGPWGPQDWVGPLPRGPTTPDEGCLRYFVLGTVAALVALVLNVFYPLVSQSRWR
Method in brief: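 Fluorescence polarisation (excitation 530 nm, parallel and perpendicular emission at 575 nm) was recorded every 15 min for 90 min after adding the ubiquitin-Lys-TAMRA isopeptide (500 nM as dispensed). Beforehand, the full-length enzyme (2.5 nM as dispensed) sat 30 min at RT with compound diluted from 200 μM to 2 μM in HEPES pH 7.4 buffer with 150 mM NaCl, 5 mM DTT, 0.05% BSA and 0.05% CHAPS. Values normalised to uninhibited wells gave IC50s by non-linear fitting, each the mean of two or more duplicate runs.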

USP19 [1] = experiment: Cellular target engagement using western blotting (Ub-PA / Ub-VME probe); type: cell-based; conditions: breast cancer, neuroblastoma and mouse skeletal muscle cell lines
Procedure: Cells from a breast cancer cell line, a neuroblastoma cell line and a mouse skeletal muscle cell line were treated with a USP19 inhibitor compound (ADC-141) for 2 hrs, lysed (lysis buffer: 50 mM Tris pH 7.4; 150 mM NaCl; 5 mM MgCl2; 0.5 mM EDTA; 0.5% NP40; 10% Glycerol; 2 mM DTT) and Ubiquitin-propargylamine (Ub-PA; UbiQ) or Ubiquitin-vinyl methyl ester (Ub-VME; Almac Sciences Scotland Limited) was then added. Samples were analysed by western blotting probing for USP19 (EC50 determined by densitometry).

[2] = tested on: diet-induced obese (DIO) mouse; experiment: Diet-induced obesity (DIO) mouse model with OGTT; type: in vivo, Male C57BL6/J mice; conditions: 5 or 25 mg/kg i.p. BID
Procedure: To assess obesity and insulin resistance, a diet-induced obesity mouse model was used.
Male C57BL6/J mice were continuously provided with high-fat diet (D12451, 45% kcal as fat; Research Diets, New Jersey, USA) and filtered tap water ad libitum for the duration of the study. From day 0, mice were administered vehicle i.p. BID, USP19 inhibitor (ADC-141) i.p. BID at 5 mg/kg or 25 mg/kg, or positive control liraglutide 0.1 mg/kg s.c. BID.
Body weight was measured daily. On Day 13, body composition was be assessed by DEXA. On Day 15, fasting glucose and insulin levels were measured before and during an oral glucose tolerance test (OGTT) to assess improvements in glucose control. The OGTT was performed following an overnight fast. […] An OGTT was performed the following morning (approx. 16 h post fast). Mice were dosed with vehicle or test compound (starting at 08.45) to a timed schedule 30 minutes prior to the administration of the glucose challenge (2.0 g/kg po). Blood samples were taken immediately prior to dosing (B1), immediately prior to glucose administration (B2) and 15, 30, 60 and 120 minutes after glucose administration.

male C57bl/6 mice = experiment: Sciatic nerve denervation muscle wasting model; type: in vivo, mouse; conditions: 75 mg/kg IP twice daily
Procedure: To induce muscle wasting, a 1 cm segment of the sciatic nerve in the thigh was removed from mice (male C57bl/6 mice at 8-10 weeks of age; n=10 per group) under isoflurane anaesthesia and analgesia with carprofen. A sham operation was carried out in the opposite leg as a control.
Mice were randomised into Vehicle or Test groups, with all animals weighed to ensure a similar mean weight in each group. ADC-141, a USP19 inhibitory compound at 75 mg/kg or Vehicle was administered IP twice daily starting from the evening post-operation.
Mice were sacrificed 14 days later. Fat pads, liver, gastrocnemius and tibialis anterior muscles were harvested. Tissue mass were measured in both groups.

[3] = Kinetic solubility (KSol); type: physicochemical
In vivo mouse PK = conditions: C57BL/6N mice, IV 1 mg/kg
[4] = Thermodynamic solubility assay; type: physicochemical; conditions: aqueous buffer, thermodynamic from solid, PBS buffer pH 7.4, read-out: TSol
Procedure: Test compound (˜0.5 mg, accurately weighed) was suspended in PBS buffer pH 7.4 (Dulbecco A) to a concentration of 1 mg/mL in a high recovery glass vial in duplicate. The suspensions were shaken at 300 rpm at rt for 64 h. About 250 μL of suspension were then transferred to a MultiScreen® Solubility filter plate (Millipore) in duplicate. Concentrations of the filtrates were then quantified against a 5-point calibration curve in a mixture of acetonitrile/PBS buffer (top concentration […]). After filtration and matrix match, the calibration and assay plates were analysed on a Bioteck Synergy 4 plate reader (240-400 nm). Final concentration of the test compound in the filtrate was calculated using the slope of the calibration curve.

USP19 [5] = target: T2, USP19 (Homo sapiens, UniProt O94966); experiment: Cellular target engagement using HTRF assay (USP19-Flag transfected cells); type: cell-based; conditions: HEK293T cells; read-out: HTRF TE IC50
T2 construct: expressed in transfected cells; host or cells: HEK293T
T2 sequence (O94966 1-1318): T1 sequence (O94966 1-1318)
Procedure: USP19 cellular target engagement was determined in a homogenous time resolved fluorescence (HTRF) assay using HA-tagged ubiquitin vinyl pentynyl sulfone (VPS) probe (UbiQ-193, UbiQ Bio) and a USP19-Flag overexpression construct. Inhibitors were stored as 10 mM DMSO stocks in an inert environment (low humidity, dark, low oxygen, rt) using the StoragePod® system (Roylan Developments). USP19-Flag transfected cells were incubated with serially diluted compound in an 11 point dose response curve (from 50 μM to 0.01 nM) for 2 h and then washed in PBS and lysed. Unless otherwise stated, all HTRF reagents were purchased from CisBio. HTRF assays using cell lysates were completed in 384 well plates (Greiner) in a 20 μL total volume. Cell lysates were incubated with HA-tagged ubiquitin VPS probe for 40 min in PPI detection buffer prior to addition of anti-HA and anti-FLAG HTRF detection reagents. HTRF was measured every 1 h for 18 h using a Pherastar FSX plate reader (excitation of 337 nm, emission of 620/665 nm). Data was normalised to DMSO (no compound controls) and fitted using IC50 values derived using Prism (GraphPad) using nonlinear regression curve fitting.

[6] = Caco-2 permeability assay; type: in vitro ADME; conditions: human, apical to basolateral (A:B), read-out: caco-2 Papp AB
Procedure: Caco-2 cells are commonly used as an in vitro model for the prediction of human intestinal absorption of test compounds. When cultured, Caco-2 cells (derived from a human colorectal carcinoma) spontaneously differentiate into monolayers of polarised enterocytes. The cells are seeded on multiwell-insert plates and form a confluent monolayer over 20 d before the assay. On day 20, compound was added to the apical side of the membrane and the flux of the compound across the monolayer was monitored over 2 h. All data was generated at Cyptotex.

Structure (SMILES): C[C@H](CC1CCCCC1)C(=O)N1CC[C@@](O)(Cn2cc(C(=O)N3CCNCC3)c(-c3ccccc3)cc2=O)C2(CCCC2)C1 [ADC-141, 1-(((S)-7-((R)-3-cyclohexyl-2-methylpropanoyl)-10-hydroxy-7-azaspiro[4.5]decan-10-yl)methyl)-4-phenyl-5-(piperazine-1-carbonyl)pyridin-2(1H)-one]
- USP19 inhibitory activity (Full-length USP19): shown to have USP19 inhibitory activity
- cell permeability (USP19 [1]): good cell permeability
- EC50 determined by densitometry (USP19 [1]; 2 hrs treatment): low nanomolar
- fat mass ([2]; DEXA Day 13): reduction in fat mass
- lean body mass ([2]; DEXA Day 13): preserved
- plasma glucose in OGTT ([2]; Day 15): decreased plasma glucose
- plasma insulin in OGTT ([2]; Day 15): decreased plasma insulin
- OGTT response ([2]; Day 15, glucose 2.0 g/kg po): dose-dependent improvement in OGTT response
- overall body weight gain ([2]; high-fat diet): reduction in overall body weight gain
- cumulative food intake ([2]; vs vehicle control): reduction in cumulative food intake
- liver mass (male C57bl/6 mice; 2 weeks, vs vehicle): increase in liver mass
- mass of the epididymal fat pad (male C57bl/6 mice; 2 weeks, vs vehicle): significantly smaller fat pads
- muscle wasting in the gastrocnemius muscle (male C57bl/6 mice; 14 days, trend did not reach significance): reduced
- loss of muscle mass in the tibialis anterior muscle (male C57bl/6 mice; 14 days, vs vehicle): significantly lower loss of muscle mass

Structure (SMILES): C[C@H](CC(F)(F)F)C(=O)N1CC[C@@](O)(Cn2cnc(-c3ccccc3)cc2=O)C2(CCCC2)C1 [F 11 9 N W 11]
- KSol [3]: 1 µM

Structure (SMILES): N[C@@H]1CCN(C(=O)N2CC[C@@](O)(Cn3cnc(-c4ccccc4)cc3=O)C3(CCCC3)C2)[C@H](c2ccccc2)C1 [F 11 9 N W032, reference compound]
- clearance (In vivo mouse PK): 3 mL/min/kg
- half-life (In vivo mouse PK; read-out: IV t1/2 (converted)): 2 h
- solubility thermodynamic at 64 h [4]: 1 µM

Structure (SMILES): O=C(N1CC[C@@H](Cn2cnc(-c3ccccc3)cc2=O)C2(CCCC2)C1)N1CCNC[C@H]1c1ccccc1
- IC50 (USP19 [5]): 1000 nM
- Papp A→B at 2 h [6]: 1 ×10⁻⁶ cm/s

Structure (SMILES): O=C(N1CC[C@@H](Cn2ccc(-c3ccccc3)cc2=O)C2(CCCC2)C1)N1CCNC[C@H]1c1ccccc1
- solubility thermodynamic at 64 h [4]: 1 µM
- IC50 (USP19 [5]): 3000 nM
- Papp A→B at 2 h [6]: 1 ×10⁻⁶ cm/s
